{"source": "patent US12103924B2", "about": "“Mitogen-activated protein kinase kinase (MEK) degradation compounds and methods of use” (Icahn School of Medicine at Mount Sinai, priority 2020, dated 2024)", "key": {"MEK2": {"biological_target": "T1, MEK2 (Homo sapiens, UniProt P36507)", "T1 construct": "purchased Thermo Fisher Scientific PV3615", "assay": "HotSpot kinase inhibition assay, MEK2", "assay_type": "biochemical", "conditions": "MEK2 150 nM, ERK K52R substrate, 33P-ATP, normalized with DMSO"}, "pMEK and pERK [1]": {"tested_on": "pMEK and pERK", "assay": "Western blot of MEK and ERK phosphorylation in SK-MEL-28 cells"}, "SK-MEL-28 cells": {"tested_on": "SK-MEL-28 cells", "assay": "MTT cell viability assay, SK-MEL-28", "assay_type": "cell-based", "conditions": "MTT 3 d, clonogenic assay 14 d at 10, 30 and 100 nM", "experimental": "Clonogenic assay was performed in HT-29 (C) and SK-MEL-28 (D) cells for 14 d treatment with DMSO or indicated compounds with 10, 30 and 100 nM, in duplicate, respectively. Cells were then stained by crystal violet.\nCells (2000 cells per well) were seeded into 96-well microplates. After 20 h, cells were treated with 0.1% DMSO or indicated serial dilutions of compounds in duplicate or triplicate for 3 days. Cell viability was tested using MTT (M6494, Thermo Fisher Scientific) or WST-8 reagent (CK04, Dojindo). Briefly, 12 mM MTT was prepared in PBS or WST-8 reagent was warmed up to room temperature. 20 μL MTT or CCK-8 was then added to each well and the plates were kept in incubator at 37° C. for 3 h in the dark. For the WST-8 assay, signal was obtained after the incubation. For the MTT assay, cell medium was replaced with 200 μL of DMSO after the incubation, and then cell plates were kept at 37° C. for another 30 min. Absorbance signals for MTT and WST-8 were read at 540 nm and 450 nm respectively, with 690 nm as reference performed with Infinite F PLEX plate reader (TECAN, Morrisville, NC, USA). GI50 values were analyzed using GraphPad Prism 8 from the data of at least three independent experiments.\nHT-29 or SK-MEL-28 cells (300 cells per well) were seeded in 12-well plates. After 20 h, cells were treated with DMSO or indicated concentrations of compounds in duplicate for two weeks. […]"}, "MEK1/2 [2]": {"tested_on": "MEK1/2", "assay": "Rescue experiments (pretreatment) in HT-29 cells, western blot", "assay_type": "cell-based", "conditions": "2 h pretreatment with PD0325901 (1 μM), MG-132 (3 μM), MLN4924 (1 μM) or VH 032 (10 μM), then 10 h with 0.3 μM CPD-031", "method": "The cells were incubated for another 8 h.\n(§1) The sample was centrifuged at 12,000 g for 10 min at 4° C. to get supernatant as cell lysate. Protein concentrations were quantified using Pierce rapid gold BCA protein assay kit."}, "HT-29 cells": {"tested_on": "HT-29 cells", "assay": "MTT cell viability assay, HT-29", "assay_type": "cell-based", "method": "MTT assay was conducted for HT-29 cells after 3 d treatment with indicated compounds with serial dilutions.\nMTT assay was conducted for HT-29 (A) and SK-MEL-28 (B) cells after 3 d treatment with DMSO or indicated compounds with serial dilutions. Clonogenic assay was performed in HT-29 (C) and SK-MEL-28 (D) cells for 14 d treatment with DMSO or indicated compounds with 10, 30 and 100 nM, in duplicate, respectively. Cells were then stained by crystal violet.\nHT-29 or SK-MEL-28 cells (300 cells per well) were seeded in 12-well plates. After 20 h, cells were treated with DMSO or indicated concentrations of compounds in duplicate for two weeks. Medium containing indicated compounds was changed every 3 days. Cells were then fixed and stained with the solution containing 6% (v/v) glutaraldehyde (G5882, Sigma-Aldrich) and 0.5% (w/v) crystal violet for 1 h. To remove the background color, the plates with stained cells were immersed in running water until clear colonies were observed. The plates were dried at RT. The staining images were obtained with Epson Perfection V600 Photo."}, "MEK1/2 [3]": {"tested_on": "MEK1/2", "assay": "Western blot of MEK1/2 protein levels in SK-MEL-28 cells", "method": "(§2) The indicated protein levels were determined by Western blots.\nas §1"}, "MEK1 and MEK2 proteins": {"tested_on": "MEK1 and MEK2 proteins", "assay": "Global proteome analysis of HT-29 cells", "assay_type": "cell-based, human", "conditions": "10 h, 0.1 μM, versus 0.1% DMSO", "experimental": "[…] […] P values were calculated from the data of two technical replicates. (A) DMSO compared to CPD-031 treated samples; (B) CPD-034 compared to CPD-031 treated samples; (C) DMSO compared to CPD-034 treated samples.\nProteins outside the significance lines were labeled with pink or purple color (FDR=0.05, S0=1). P values were calculated from the data of two technical replicates.\nProtein Extraction and Digestion. Cells with indicated treatments were harvested and lysed in lysis buffer (6 M guanidine hydrochloride, 100 mM Tris-HCl pH 8.0). Sonication (5 s on, 5 s off, 2×30 s) was performed to shear genome DNA. Lysate were centrifugated for 30 min at 3,500 g at 4° C. and the supernatant were transferred to a clean tube, diluted 50% with Milli-Q H2O, then precipitated by addition of cold acetone (four times the original volume), and placed at −20° C. overnight. Precipitated proteins were brought down at 20,000 g at 4° C. for 10 min, and washed with cold acetone after discarding the supernatant. The pellet was air-dried at RT for 5 min and solubilized with 50 mM Tris-HCl (PH 8.0), 8 M urea. Protein concentration was determined (BCA assay) and protein was reduced with 5 mM DTT (dithiothreitol), alkylated with 15 mM IAA (iodoacetamide) in the dark, then diluted with buffer 25 mM Tris (pH 8.0) and 1 mM CaCl2 (three times the original volume). The final urea concentration is 2 M. Trypsin was added into protein solution with 1:100 ratio (trypsin:protein), and digested 12-16 h or overnight at RT.\nMass Spectrometry Analysis. Peptides were cleaned up by C18 stage tips and the concentration was determined (Peptide assay, 23275, Thermo Fisher Scientific). The clean peptides were dissolved in 0.1% formic acid and analyzed on a Q-Exactive HF-X coupled with an Easy nanoLC 1200 (Thermo Fisher Scientific, San Jose, CA). 0.5 μg of peptides were loaded onto an Acclain PepMap RSLC C18 Column (250 mm×75 μm ID, C18, 2 μm, Thermo Fisher Scientific). […] A linear gradient of 5 to 30% buffer B over 110 min was executed at a 300 nl/min flow rate followed a ramp to 100% B in 5 min, and 15-min wash with 100% B, where buffer A was aqueous 0.1% formic acid, and buffer B was 80% acetonitrile and 0.1% formic acid.\nLC-MS experiments were performed in a data-dependent mode with full MS (externally calibrated to a mass accuracy of <5 ppm and a resolution of 60,000 at m/z 200) followed by high energy collision-activated dissociation-MS/MS of the top 20 most intense ions with a resolution of 15,000 at m/z 200. High energy collision-activated dissociation-MS/MS was used to dissociate peptides at a normalized collision energy of 27 eV in the presence of nitrogen bath gas atoms. Dynamic exclusion was 30.0 seconds. Each sample was subjected to two technical LC-MS replicates.\nMS Data Analysis. Mass spectra processing and peptide identification were performed on the Andromeda search engine in MaxQuant software (Version 1.6.0.16) against the human UniProt database (UP000005640). All searches were conducted with a defined modification of cysteine carbamidomethylation, with methionine oxidation and protein amino-terminal acetylation as dynamic modifications. Peptides were confidently identified using a target-decoy approach with a peptide false discovery rate (FDR) of 1% and a protein FDR of 1%. A minimum peptide length of 7 amino acids was required, maximally two missed cleavages were allowed, initial mass deviation for precursor ion was up to 7 ppm, and the maximum allowed mass deviation for fragment ions was 0.5 Da. Data processing and statistical analysis were performed on Perseus (Version 1.6.0.7). Protein quantitation was performed on duplicate runs, and a two-sample t-test statistics was used to report statistically significant expression fold-changes."}, "MEK1/2 [4]": {"tested_on": "MEK1/2", "assay": "Rescue experiments (pretreatment) in SK-MEL-28 cells, western blot", "assay_type": "cell-based", "conditions": "2 h pretreatment with PD0325901 (1 μM), MG-132 (3 μM), MLN4924 (1 μM) or VH 032 (10 μM), then 10 h with 0.3 μM CPD-031"}, "MEK1": {"biological_target": "T2, MEK1 (Homo sapiens, UniProt Q02750)", "T2 construct": "purchased Thermo Fisher Scientific PV3303", "assay": "HotSpot kinase inhibition assay, MEK1", "assay_type": "biochemical", "conditions": "MEK1 100 nM, ERK K52R substrate, 33P-ATP, normalized with DMSO"}, "MEK1/2 [5]": {"tested_on": "MEK1/2", "assay": "Western blot of MEK1/2 protein levels in HT-29 cells", "assay_type": "cell-based", "method": "Compound concentrations are 0.3 μM, 1 μM and 3 μM.\nas §2, §1"}, "pMEK and pERK [6]": {"tested_on": "pMEK and pERK", "assay": "Western blot of MEK and ERK phosphorylation in HT-29 cells", "assay_type": "cell-based"}, "[7]": {"conditions": "SK-MEL-28 cells, 0.1 μM or 0.3 μM, harvested at indicated time points"}, "[8]": {"conditions": "SK-MEL-28 cells, 0.1, 0.3, or 1 μM, 24 h"}, "[9]": {"conditions": "SK-MEL-28 cells, serial dilution, 24 h, western blot"}, "[10]": {"conditions": "HT-29 cells, 0.1 μM or 0.3 μM, harvested at indicated time points"}, "[11]": {"conditions": "HT-29 cells, 0.1, 0.3, or 1 μM, 24 h"}, "[12]": {"conditions": "HT-29 cells, serial dilution, 24 h, western blot"}}, "data": [{"smiles": "Cc1ncsc1-c1ccc([C@H](C)NC(=O)[C@@H]2C[C@@H](O)CN2C(=O)[C@@H](NC(=O)CCCCCCCCCCNCCCONC(=O)c2ccc(F)c(F)c2Nc2ccc(I)cc2F)C(C)(C)C)cc1", "note": "[CPD-031, (2S,4R)-1-((S)-20-(tert-butyl)-1-(3,4-difluoro-2-((2-fluoro-4-iodophenyl)amino)phenyl)-1,18-dioxo-3-oxa-2,7,19-triazahenicosan-21-oyl)-4-hydroxy-N—((S)-1-(4-(4-methylthiazol-5-yl)phenyl)ethyl)pyrrolidine-2-carboxamide]", "values": [{"measurement": "MEK2 kinase activity", "setting": "MEK2", "value": "inhibited"}, {"measurement": "phosphorylation of MEK and ERK / pERK signaling, time-dependent", "setting": "pMEK and pERK [1]; [7]", "value": "inhibited"}, {"measurement": "inhibition of MEK and ERK phosphorylation compared with CPD-034", "setting": "pMEK and pERK [1]; [8]", "value": "more potent"}, {"measurement": "phosphorylation of MEK and ERK proteins, concentration-dependent", "setting": "pMEK and pERK [1]; [9]", "value": "inhibited"}, {"measurement": "inhibition of the growth of cells compared with CPD-034", "setting": "SK-MEL-28 cells", "value": "more potent"}, {"measurement": "potency at degradation of MEK1 and MEK2 and inhibition of MEK phosphorylation after pretreatment", "setting": "MEK1/2 [2]", "value": "significantly impaired"}, {"measurement": "GI50", "setting": "HT-29 cells; Homo sapiens, 72 h, MTT assay, 3 d treatment, serial dilutions", "value": "0.13 ± 0.04", "unit": "µM"}, {"measurement": "inhibition of the growth of cells compared with CPD-034", "setting": "HT-29 cells; MTT 3 d, clonogenic assay 14 d at 10, 30 and 100 nM", "value": "more potent"}, {"measurement": "MEK1 and MEK2 protein levels, time-dependent", "setting": "MEK1/2 [3]; [7]", "value": "reduced"}, {"measurement": "MEK1 and MEK2 protein levels", "setting": "MEK1/2 [3]; [8]", "value": "reduced"}, {"measurement": "MEK1 and MEK2 protein levels, concentration-dependent", "setting": "MEK1/2 [3]; [9]", "value": "reduced"}, {"measurement": "protein levels in the global proteomic study", "setting": "MEK1 and MEK2 proteins", "value": "selectively degraded"}, {"measurement": "potency at degradation of MEK1 and MEK2 and inhibition of MEK phosphorylation after pretreatment", "setting": "MEK1/2 [4]", "value": "significantly impaired"}, {"measurement": "MEK1 kinase activity", "setting": "MEK1", "value": "inhibited"}, {"measurement": "MEK1 and MEK2 protein levels, time-dependent", "setting": "MEK1/2 [5]; [10]", "value": "reduced"}, {"measurement": "MEK1 and MEK2 protein levels", "setting": "MEK1/2 [5]; [11]", "value": "reduced"}, {"measurement": "MEK1 and MEK2 protein levels, concentration-dependent", "setting": "MEK1/2 [5]; [12]", "value": "reduced"}, {"measurement": "phosphorylation of MEK and ERK / pERK signaling, time-dependent", "setting": "pMEK and pERK [6]; [10]", "value": "inhibited"}, {"measurement": "inhibition of MEK and ERK phosphorylation compared with CPD-034", "setting": "pMEK and pERK [6]; [11]", "value": "more potent"}, {"measurement": "phosphorylation of MEK and ERK proteins, concentration-dependent", "setting": "pMEK and pERK [6]; [12]", "value": "inhibited"}]}]}
